The target of the experiment is T1, p53 Y220C (Homo sapiens, UniProt P04637, P309S/R273H/Y220C).
T1 construct: made in house; host or cells: E. coli
As to the kind of experiment: HTRF / TR-FRET in vitro DNA binding activity assay (SC150). Type of experiment: biochemical. The following applies: concentration required to increase DNA binding activity of p53 Y220C by 50%. The method, then: The ability of a compound of the invention to stabilize p53 Y220C and increase the DNA binding activity of p53 Y220C was measured by a homogeneous time-resolved fluorescence (HTRF) assay. Recombinant His-tagged p53 Y220C used in the HTRF assay was expressed in the bacterium E. coli. The recombinant protein was a truncation mutant containing only amino acids 94-312 of p53, which encompassed the DNA binding domain (DBD) of p53 (SEQ ID NO.: 1). The His-tagged p53 Y220C was tested for DNA binding ability with a consensus sequence of DNA (DNA duplex with a sequence of 5′-[…]-3′; SEQ ID NO.: 2). SEQ ID NO.: 2 was then conjugated with a biotin label and used in the activity assay.
The binding of the recombinant His-tagged p53 Y220C protein and the biotin-labeled consensus DNA was measured using fluorescence resonance energy transfer (FRET). For the FRET assay, the binding between the p53 mutant and the DNA sequence was measured by detecting the fluorescence of the interaction between an anti-His antibody conjugated to allophycocyanin (APC) and streptavidin conjugated to europium to detect the biotin-labeled DNA.
The test compounds were prepared as 4.5 mM stock solutions in dimethyl sulfoxide (DMSO). The compounds of the disclosure were used to test the stabilization of p53 Y220C and increase in DNA binding activity of p53 Y220C. The stock solutions were then serially diluted 3-fold in DMSO, and 1.2 μL of the diluted solutions was added to each well of a 384-well polypropylene black plate. 30 μL of a 181 nM solution of the recombinant His-tagged p53 Y220C protein and 12.1 nM of APC conjugated anti-His tag antibody in ice-cold Assay Buffer 1 (50 mM Tris-HCl, pH 7.4; 75 mM KCl; 0.75 mM DTT; and 0.2 mg/mL bovine serum albumin (BSA) was added to each well containing the test compounds.
As a background control, 30 μL of Assay Buffer 1 containing 12.1 nM of APC anti-His antibody was also added into a second set of serially-diluted compound plates. The test and control samples were spun at 1200 rpm for 1 minute and incubated at room temperature for 15 minutes. The samples were then further incubated at either 27° C. or 29° C. for 60 min. Five microliters of 311 nM biotin labeled consensus DNA (SEQ ID NO.: 2) and 13.03 nM europium-conjugated streptavidin in Assay Buffer 2 (50 mM Tris-HCl, pH 7.4; 75 mM KCl; and 0.2 mg/mL BSA) were added to each well for both the test and control plates. The plates were spun at 1200 rpm for 1 minute and incubated at room temperature for 20 minutes. The assay signals were monitored by reading excitation at 340 nm, and emission fluorescence at 615 nm and 665 nm on a plate reader.
Normalized time-resolved fluorescence resonance energy transfer (TR-FRET) assay signal (Rn) was calculated by the formula: Rn=[(A−Ba−CD)/(D−Bd)](Dc−Bd) where A was the fluorescence intensity of the sample at 665 nm; D was the fluorescence intensity of the sample at 615 nm; Ba and Bd were plate background readings at 665 nm and 615 nm, respectively; and Dc was the fluorescence intensity of 1.8 nM Eu-SA in the assay buffer at 615 nm.
The cross talk factor (C) was determined by the following formula: C═(Ac−Ba)/(DC−Bd) where Ac was the fluorescence intensity of 1.8 nM Eu-labeled anti-FLAG antibody in the assay buffer at 665 nm.
The percentage of activation of protein DNA binding in the presence of a compound of the invention compared to the absence of the compound was denoted by a SC150 value, which indicated the concentration of the compound required to increase the DNA binding activity by 50%. The SC150 values were calculated using either Prism™ or ActivityBase™.
On the technique in general: Time-resolved FRET reads energy transfer from a long-lived donor to a nearby acceptor.

The structures appear in SMILES notation.

In the case of `COCC(O)CN1CCC(Nc2cccc3c2cc(C#CCNc2ccc(S(C)(=O)=O)cc2OC)n3CC(F)(F)F)CC1` (stereo not shown) [Compound 7, 1-{4-[(2-{3-[(4-methanesulfonyl-2-methoxyphenyl)amino]prop-1-yn-1-yl}-1-(2,2,2-trifluoroethyl)-1H-indol-4-yl)amino]piperidin-1-yl}-3-methoxypropan-2-ol], the “SC150 (μM)” value (TABLE 10) is given as “′ (′ = 0 μM ≤ SC150 < 0.05 μM)”.
Regarding `COc1cc(S(C)(=O)=O)ccc1NCC#Cc1cc2c(N[C@H]3CC[C@H](N4CC5CC(C4)O5)CC3)cccc2n1CC(F)(F)F` [Compound 10, 2-{3-[(4-methanesulfonyl-2-methoxyphenyl)amino]prop-1-yn-1-yl}-N-[(1r,4r)-4-{6-oxa-3-azabicyclo[3.1.1]heptan-3-yl}cyclohexyl]-1-(2,2,2-trifluoroethyl)-1H-indol-4-amine], where the note is “TABLE 10”, the “SC150 (μM)” value was “′ (′ = 0 μM ≤ SC150 < 0.05 μM)”.
On to `COc1cc(S(C)(=O)=O)ccc1NCC#Cc1cc2c(N[C@@H]3CCN(C)C[C@@H]3F)cccc2n1CC(F)(F)F` [Compound 13, N-[(3S,4R)-3-fluoro-1-methylpiperidin-4-yl]-2-{3-[(4-methanesulfonyl-2-methoxyphenyl)amino]prop-1-yn-1-yl}-1-(2,2,2-trifluoroethyl)-1H-indol-4-amine], for which the “SC150 (μM)” value (TABLE 10) is reported as “′ (′ = 0 μM ≤ SC150 < 0.05 μM)”.
`CNC(=O)c1ccc(NCC#Cc2cc3c(N[C@@H]4CCN(C)C[C@@H]4F)cccc3n2CC(F)(F)F)c(OC)c1` [Compound 14, 4-{[3-(4-{[(3S,4R)-3-fluoro-1-methylpiperidin-4-yl]amino}-1-(2,2,2-trifluoroethyl)-1H-indol-2-yl)prop-2-yn-1-yl]amino}-3-methoxy-N-methylbenzamide]: the “SC150 (μM)” value (TABLE 10) was “′ (′ = 0 μM ≤ SC150 < 0.05 μM)”.
Still for that read-out and setting: then `COc1cc(S(C)(=O)=O)ccc1NCC#Cc1cc2c(N(C)C)cccc2n1CC(F)(F)F` [Molecule 702], with “′′′ (′′′ = 0.1 μM ≤ SC150 < 0.2 μM)”.
For `COc1cc(S(C)(=O)=O)ccc1NCC#Cc1cc2c(NC(=O)NC3CCN(CCO)CC3)cccc2n1CC(F)(F)F` [Molecule 1155], the “SC150 (μM)” value (TABLE 10) is reported as “′′′′ (′′′′ = 0.2 μM ≤ SC150 < 1 μM)”.
For `COc1cc(S(=O)(=O)Nc2ccon2)ccc1NCC#Cc1cc2c(NC3CCC(N(C)C)CC3)cccc2n1CC(F)(F)F` (stereo not shown) [Molecule 1188], the “SC150 (μM)” value (TABLE 10) is listed as “′ (′ = 0 μM ≤ SC150 < 0.05 μM)”.
Still for that read-out and setting: then `CNC(=O)c1ccc(NCC#Cc2cc3c(NC4CCC(N5CC(S(C)(=O)=O)C5)CC4)cccc3n2CC(F)(F)F)c(OC)c1` (stereo not shown) [Molecule 1330], with “′ (′ = 0 μM ≤ SC150 < 0.05 μM)”; and `CN1CCC(Nc2cccc3c2cc(C#CCNc2ccc(S(C)(=O)=O)cc2O)n3CC(F)(F)F)CC1` [Molecule 1623], with “′ (′ = 0 μM ≤ SC150 < 0.05 μM)”.
On the same count and under the same terms, to `COc1cc(S(N)(=O)=O)ccc1NCC#Cc1cc2c(NC3CCN(C[C@@H](O)CO)CC3)cccc2n1CC(F)(F)F` [Molecule 1687] belongs “′ (′ = 0 μM ≤ SC150 < 0.05 μM)”.
On the same count and under the same terms, to `CNC(=O)c1ccc(NCC#Cc2cc3c(N[C@H]4CCN(C)C[C@H]4F)cccc3n2CC(F)(F)F)c(OC)c1` [Molecule 1921] belongs “′ (′ = 0 μM ≤ SC150 < 0.05 μM)”; to `COc1cc(C(N)=O)ccc1NCC#Cc1cc2c(N[C@@H]3CCN(C)C[C@@H]3F)cccc2n1CC(F)(F)F` [Molecule 1938], “′ (′ = 0 μM ≤ SC150 < 0.05 μM)”; to `COc1cc(C(N)=O)ccc1NCC#Cc1cc2c(N[C@H]3CCN(C)C[C@H]3F)cccc2n1CC(F)(F)F` [Molecule 1939], “′ (′ = 0 μM ≤ SC150 < 0.05 μM)”.
On to `COc1cc(C(N)=O)ccc1NCC#Cc1cc2c(NC3C[C@@H](C)O[C@@H](C)C3)cccc2n1CC(F)(F)F` (stereo partly shown) [Molecule 2168], for which the “SC150 (μM)” value (TABLE 10) is recorded as “′′′ (′′′ = 0.1 μM ≤ SC150 < 0.2 μM)”.
`N#Cc1cccc(-c2cc3c(NC4CCS(=O)(=O)CC4)cccc3n2CC(F)(F)F)c1` [Molecule 2204]: the “SC150 (μM)” value (TABLE 12) is listed as “** (** = 0.1 μM ≤ SC150 < 0.5 μM)”.
For `Cc1ccc(-c2cc3c(NC4CCS(=O)(=O)CC4)cccc3n2CC(F)(F)F)c(F)c1` [Molecule 2205], the “SC150 (μM)” value (TABLE 12) is listed as “** (** = 0.1 μM ≤ SC150 < 0.5 μM)”.
Consider `O=S1(=O)CCC(Nc2cccc3c2cc(-c2cccc(Cl)c2)n3CC(F)(F)F)CC1` [Molecule 2206], for which the “SC150 (μM)” value (TABLE 12) was “* (* = 0 μM ≤ SC150 < 0.1 μM)”.
In the case of `CN1CC[C@H](Nc2cccc3c2cc(-c2ccc(CNC(=O)c4ccccc4)cc2)n3CC(F)(F)F)[C@H](F)C1` [Molecule 2239], the “SC150 (μM)” value (TABLE 11) is given as “+ (+ = 0 μM ≤ SC150 < 2 μM)”.
The same measure, in the same setting: to `CN1CC[C@H](Nc2cccc3c2cc(-c2ccc(CNC(=O)C4CC4)cc2)n3CC(F)(F)F)[C@H](F)C1` [Molecule 2240] belongs “+ (+ = 0 μM ≤ SC150 < 2 μM)”.

Source of the values: US12570645B2, “Uses of p53 x-ray co-crystal structures” (PMV Pharmaceuticals, Inc., priority 2020, dated 2026).
